# Key:
# Test in all cases: post-emergence herbicidal activity, greenhouse
# Assay type in all cases: in vivo
# [1] = system: Barnyardgrass
# Text: (§1) A good grade of top soil is placed in aluminum pans having holes in the bottom and compacted to a depth of 0.95 to 1.27 cm. from the top of the pan. A predetermined number of seeds of each of several dicotyledonous and monocotyledonous annual plant species and/or vegetative propagules for the perennial plant species are placed on the soil and pressed into the soil surface. The seeds and/or vegetative propagules are covered with soil and leveled. The pans are then placed on a sand bench in the greenhouse and watered from below as needed. After the plants reach the desired age (two to three weeks), each pan except for the control pans is removed individually to a spraying chamber and sprayed by means of an atomizer operating at a positive air pressure of approximately 1.46 kg/cm^2 absolute. The atomizer contains 6 ml. of a solution or suspension of the chemical. In that 6 ml., is an amount of a cyclohexanone emulsifying agent mixture to give a spray solution or suspension which contains about 0.4% by weight of the emulsifier. The spray solution or suspension contains a sufficient amount of the candidate chemical in order to give application rates corresponding to those set forth in the tables. The spray solution is prepared by taking an aliquot of a 1.0% by weight stock solution or suspension of the candidate chemical in an organic solvent such as acetone or tetrahydrofuran or in water. The emulsifying agent employed is a mixture comprising 35 weight percent butylamine dodecylbenzene sulfonate and 65 weight percent of a tall oil ethylene oxide condensate having about 11 moles of ethylene oxide per mole of tall oil. The pans are returned to the greenhouse and watered as before and the injury to the plants as compared to the control is observed at approximately two and four weeks as indicated in the tables under WAT and the results recorded. In some instances, the two-week observations are omitted.
# (§2) The post-emergence herbicidal activity index used in Table I is as follows: […]
# [2] = system: Cocklebur
# Text: as §1, §2
# [3] = system: Crabgrass; conditions: Table II
# Text: as §1, §2
# [4] = system: Downy Brome
# Text: as §1, §2
# [5] = system: Hemp Sesbania; conditions: Table II
# Text: as §1, §2
# [6] = system: Johnsongrass; conditions: Table I, 4 WAT
# Text: as §1, §2
# [7] = system: Lambsquarters
# Text: as §1, §2
# [8] = system: Morningglory
# Text: as §1, §2
# [9] = system: Panicum Spp; conditions: Table II
# Text: as §1, §2
# [10] = system: Quackgrass; conditions: Table I, 4 WAT
# Text: as §1, §2
# [11] = system: Rice; conditions: Table II
# Text: as §1, §2
# [12] = system: Smartweed
# Text: as §1, §2
# [13] = system: Sorghum; conditions: Table II
# Text: as §1, §2
# [14] = system: Soybean; conditions: Table II
# Text: as §1, §2
# [15] = system: Sugar Beet; conditions: Table II
# Text: as §1, §2
# [16] = system: Velvetleaf
# Text: as §1, §2
# [17] = system: Wheat; conditions: Table II
# Text: as §1, §2
# [18] = system: Wild Buckwheat; conditions: Table II
# Text: as §1, §2
# [19] = system: Yellow Nutsedge; conditions: Table I, 4 WAT
# Text: as §1, §2
compound,measurement,setting,value
"N#CCN(CP(=O)(Oc1ccccc1)Oc1ccccc1)SSCCc1ccccc1 [XII, Phosphonic acid, [[(cyanomethyl)[(2-phenylethyl)dithio]amino]methyl]-, diphenyl ester]",post-emergence herbicidal activity index,"[1]; Table I, 4 WAT, 5.6 kg/h",2 (50-74% control)
same,post-emergence herbicidal activity index,"[1]; Table I, 4 WAT, 11.2 kg/h",2 (50-74% control)
same,post-emergence herbicidal activity index,"[1]; Table II, 2 WAT, 0.28 kg/h",0 (0-24% control)
same,post-emergence herbicidal activity index,"[1]; Table II, 4 WAT, 1.12 kg/h",0 (0-24% control)
same,post-emergence herbicidal activity index,"[1]; Table II, 4 WAT, 5.6 kg/h",2 (50-74% control)
same,post-emergence herbicidal activity index,"[2]; Table I, 4 WAT, 5.6 kg/h",2 (50-74% control)
same,post-emergence herbicidal activity index,"[2]; Table I, 4 WAT, 11.2 kg/h",4 (100% control)
same,post-emergence herbicidal activity index,"[2]; Table II, 2 WAT, 0.28 kg/h",0 (0-24% control)
same,post-emergence herbicidal activity index,"[2]; Table II, 4 WAT, 1.12 kg/h",0 (0-24% control)
same,post-emergence herbicidal activity index,"[2]; Table II, 4 WAT, 5.6 kg/h",2 (50-74% control)
same,post-emergence herbicidal activity index,"[3]; 2 WAT, 0.28 kg/h",0 (0-24% control)
same,post-emergence herbicidal activity index,"[3]; 4 WAT, 1.12 kg/h",0 (0-24% control)
same,post-emergence herbicidal activity index,"[3]; 4 WAT, 5.6 kg/h",3 (75-99% control)
same,post-emergence herbicidal activity index,"[4]; Table I, 4 WAT, 5.6 kg/h",0 (0-24% control)
same,post-emergence herbicidal activity index,"[4]; Table I, 4 WAT, 11.2 kg/h",3 (75-99% control)
same,post-emergence herbicidal activity index,"[4]; Table II, 2 WAT, 0.28 kg/h",0 (0-24% control)
same,post-emergence herbicidal activity index,"[4]; Table II, 4 WAT, 1.12 kg/h",0 (0-24% control)
same,post-emergence herbicidal activity index,"[4]; Table II, 4 WAT, 5.6 kg/h",2 (50-74% control)
same,post-emergence herbicidal activity index,"[5]; 2 WAT, 0.28 kg/h",0 (0-24% control)
same,post-emergence herbicidal activity index,"[5]; 4 WAT, 1.12 kg/h",0 (0-24% control)
same,post-emergence herbicidal activity index,"[5]; 4 WAT, 5.6 kg/h",1 (25-49% control)
same,post-emergence herbicidal activity index,[6]; 5.6 kg/h,1 (25-49% control)
same,post-emergence herbicidal activity index,[6]; 11.2 kg/h,4 (100% control)
same,post-emergence herbicidal activity index,"[7]; Table I, 4 WAT, 5.6 kg/h",4 (100% control)
same,post-emergence herbicidal activity index,"[7]; Table I, 4 WAT, 11.2 kg/h",4 (100% control)
same,post-emergence herbicidal activity index,"[7]; Table II, 2 WAT, 0.28 kg/h",0 (0-24% control)
same,post-emergence herbicidal activity index,"[7]; Table II, 4 WAT, 1.12 kg/h",0 (0-24% control)
same,post-emergence herbicidal activity index,"[7]; Table II, 4 WAT, 5.6 kg/h",3 (75-99% control)
same,post-emergence herbicidal activity index,"[8]; Table I, 4 WAT, 5.6 kg/h",1 (25-49% control)
same,post-emergence herbicidal activity index,"[8]; Table I, 4 WAT, 11.2 kg/h",1 (25-49% control)
same,post-emergence herbicidal activity index,"[8]; Table II, 2 WAT, 0.28 kg/h",0 (0-24% control)
same,post-emergence herbicidal activity index,"[8]; Table II, 4 WAT, 1.12 kg/h",0 (0-24% control)
same,post-emergence herbicidal activity index,"[8]; Table II, 4 WAT, 5.6 kg/h",1 (25-49% control)
same,post-emergence herbicidal activity index,"[9]; 2 WAT, 0.28 kg/h",0 (0-24% control)
same,post-emergence herbicidal activity index,"[9]; 4 WAT, 1.12 kg/h",0 (0-24% control)
same,post-emergence herbicidal activity index,"[9]; 4 WAT, 5.6 kg/h",1 (25-49% control)
same,post-emergence herbicidal activity index,[10]; 5.6 kg/h,0 (0-24% control)
same,post-emergence herbicidal activity index,[10]; 11.2 kg/h,3 (75-99% control)
same,post-emergence herbicidal activity index,"[11]; 2 WAT, 0.28 kg/h",0 (0-24% control)
same,post-emergence herbicidal activity index,"[11]; 4 WAT, 1.12 kg/h",0 (0-24% control)
same,post-emergence herbicidal activity index,"[11]; 4 WAT, 5.6 kg/h",0 (0-24% control)
same,post-emergence herbicidal activity index,"[12]; Table I, 4 WAT, 5.6 kg/h",0 (0-24% control)
same,post-emergence herbicidal activity index,"[12]; Table I, 4 WAT, 11.2 kg/h",3 (75-99% control)
same,post-emergence herbicidal activity index,"[12]; Table II, 2 WAT, 0.28 kg/h",0 (0-24% control)
same,post-emergence herbicidal activity index,"[12]; Table II, 4 WAT, 1.12 kg/h",0 (0-24% control)
same,post-emergence herbicidal activity index,"[12]; Table II, 4 WAT, 5.6 kg/h",2 (50-74% control)
same,post-emergence herbicidal activity index,"[13]; 2 WAT, 0.28 kg/h",0 (0-24% control)
same,post-emergence herbicidal activity index,"[13]; 4 WAT, 1.12 kg/h",1 (25-49% control)
same,post-emergence herbicidal activity index,"[13]; 4 WAT, 5.6 kg/h",3 (75-99% control)
same,post-emergence herbicidal activity index,"[14]; 2 WAT, 0.28 kg/h",0 (0-24% control)
same,post-emergence herbicidal activity index,"[14]; 4 WAT, 1.12 kg/h",0 (0-24% control)
same,post-emergence herbicidal activity index,"[14]; 4 WAT, 5.6 kg/h",1 (25-49% control)
same,post-emergence herbicidal activity index,"[15]; 2 WAT, 0.28 kg/h",0 (0-24% control)
same,post-emergence herbicidal activity index,"[15]; 4 WAT, 1.12 kg/h",0 (0-24% control)
same,post-emergence herbicidal activity index,"[15]; 4 WAT, 5.6 kg/h",1 (25-49% control)
same,post-emergence herbicidal activity index,"[16]; Table I, 4 WAT, 5.6 kg/h",0 (0-24% control)
same,post-emergence herbicidal activity index,"[16]; Table I, 4 WAT, 11.2 kg/h",2 (50-74% control)
same,post-emergence herbicidal activity index,"[16]; Table II, 2 WAT, 0.28 kg/h",0 (0-24% control)
same,post-emergence herbicidal activity index,"[16]; Table II, 4 WAT, 1.12 kg/h",0 (0-24% control)
same,post-emergence herbicidal activity index,"[16]; Table II, 4 WAT, 5.6 kg/h",2 (50-74% control)
same,post-emergence herbicidal activity index,"[17]; 2 WAT, 0.28 kg/h",0 (0-24% control)
same,post-emergence herbicidal activity index,"[17]; 4 WAT, 1.12 kg/h",0 (0-24% control)
same,post-emergence herbicidal activity index,"[17]; 4 WAT, 5.6 kg/h",1 (25-49% control)
same,post-emergence herbicidal activity index,"[18]; 2 WAT, 0.28 kg/h",0 (0-24% control)
same,post-emergence herbicidal activity index,"[18]; 4 WAT, 1.12 kg/h",0 (0-24% control)
same,post-emergence herbicidal activity index,"[18]; 4 WAT, 5.6 kg/h",2 (50-74% control)
same,post-emergence herbicidal activity index,[19]; 5.6 kg/h,2 (50-74% control)
same,post-emergence herbicidal activity index,[19]; 11.2 kg/h,2 (50-74% control)

# — patent publication US4508663A, “Process for preparing thiosulfenamide derivatives of N-phosphonomethylglycinonitriles” (Monsanto Company, priority 1983, dated 1985)
